Patent US20090042913A1, “Indolylalkylthienopyrimidylamines as modulators of the EP2 receptor” (priority 2007, published 2009)

Key:
[1] = system: cumulus-oocyte complexes (PGE2-induced cumulus expansion); test: Cumulus expansion assay in vitro; assay type: cell-based, mice; conditions: in competition with PGE2
Description: Folliculogenesis is induced in immature female mice at an age of 14-18 days by a single dose (intraperitoneal) of 10 I.U. of PMSG (Pregnant Mare Serum Gonadotropin; Sigma G-4877, Lot 68H0909). 47-50 hours after the injection, the ovaries are removed and the cumulus-oocyte complexes are removed. The cumulus complex is not yet expanded at this stage.
The cumulus-oocyte complexes are then incubated with prostaglandin E2 (PGE2) (0.3 μM), vehicle control (ethanol) or test substances for 20-24 hours. Medium: alpha-MEM medium with 0.1 mM IBMX, pyruvates (0.23 mM) glutamines (2 mM), pen/strep 100 IU/ml pen. and 100 μg/ml strep. and HSA (8 mg/ml). Cumulus expansion is then established through the division into four stages (according to Vanderhyden et al. Dev Biol. 1990 August; 140(2):307-317).

[2] = target: T1, human prostaglandin E2 (subtype EP2) receptor (Homo sapiens, UniProt P43116); test: cAMP antagonism assay (HTRF cAMP detection, PGE2-stimulated cells); assay type: cell-based; conditions: cAMP antagonism test, in presence of PGE2
T1 construct: host or cells: cells in a cell culture plate
T1 sequence (P43116 whole entry): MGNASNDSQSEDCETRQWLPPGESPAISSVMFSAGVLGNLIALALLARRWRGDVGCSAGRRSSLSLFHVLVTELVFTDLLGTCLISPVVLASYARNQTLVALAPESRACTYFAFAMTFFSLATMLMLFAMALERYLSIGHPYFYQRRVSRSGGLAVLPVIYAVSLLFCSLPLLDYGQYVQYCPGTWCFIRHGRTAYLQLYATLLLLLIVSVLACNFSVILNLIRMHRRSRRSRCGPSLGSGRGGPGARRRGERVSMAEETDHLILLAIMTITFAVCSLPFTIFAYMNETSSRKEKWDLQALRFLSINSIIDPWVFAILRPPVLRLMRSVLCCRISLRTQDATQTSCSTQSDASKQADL
Description: (§1) The binding of PGE2 to the EP2 subtype of the human PGE2 receptor induces activation of membrane-associated adenylate cyclases and leads to the formation of cAMP. In the presence of the phosphodiesterase inhibitor IBMX, cAMP which has accumulated due to this stimulation and been released by cell lysis is employed in a competitive detection method. In this assay, the cAMP in the lysate competes with cAMP-XL665 for binding of an Eu cryptate-labelled anti-cAMP antibody.
(§2) The two signals are measured in a suitable measuring instrument with a time lag, i.e. after the background fluorescence has declined.
(§3) The substance solutions (0.75 μl) introduced into an assay plate and 30% DMSO are dissolved in 16 μl of a KRSB+IBMX stimulation solution (1× Krebs-Ringer Bicarbonate Buffer; Sigma-Aldrich # K-4002; including 750 μM 3-isobutyl-1-methylxanthine Sigma-Aldrich # I-7018), and then 15 μl thereof are transferred into a media-free cell culture plate which has been washed with KRSB shortly beforehand.
After preincubation at room temperature (RT) for 30 minutes, 5 μl of a 4×PGE2 solution (11 nM) are added, and incubation is carried out in the presence of the agonist at RT for a further 60 min (volume: ˜20 μl) before the reaction is then stopped by adding 5 μl of lysis buffer and incubated at RT for a further 20 min (volume: ˜25 μl). The cell lysate is then transferred into a measuring plate and measured in accordance with the manufacturer's information (cyclic AMP kit Cisbio International # 62AMPPEC).

[3] = target: T1, human prostaglandin E2 (subtype EP2) receptor; test: cAMP agonism assay (cellular agonism test); assay type: cell-based; conditions: without PGE2
Description: as §1, §2
as §3, with “1-7018),” for “I-7018),”
After incubation at room temperature (RT; volume: ˜15 μl) for 60 minutes, the reaction is then stopped by adding 5 μl of lysis buffer and incubated at RT for a further 20 min (volume: ˜20 μl). The cell lysate is then transferred into a measuring plate and measured in accordance with the manufacturer's instructions (cyclic AMP kit Cisbio International # 62AMPPEC).

In the case of `CC(C)Oc1ccc2c(=O)c3cc(C(=O)O)ccc3oc2c1` [AH 6809, reference compound], the “suppression of cumulus expansion” value ([1]; 100-200 μM) is reported as “approx. 30%”.

With `Cc1[nH]c2c(F)ccc(C)c2c1CCNc1ncnc2cc(-c3cccc(F)c3)sc12` [Example 22, [2-(7-fluoro-2,4-dimethyl-1H-indol-3-yl)ethyl]-[6-(3-fluorophenyl)thieno[3,2-d]pyrimidin-4-yl]amine] the IC50 [2] was 0.111 µM, the “effect in the cellular agonism test” value [3] was “no inhibition” and the “suppression of cumulus expansion” value ([1]; 10 μM) was 45%.

In the case of `Cc1[nH]c2c(F)ccc(C)c2c1CCNc1ncnc2cc(-c3ccc(C(F)(F)F)cc3)sc12` [Example 30, [2-(7-fluoro-2,4-dimethyl-1H-indol-3-yl)ethyl]-[6-(4-trifluoromethylphenyl)thieno[3,2-d]pyrimidin-4-yl]amine], the IC50 [2] is reported as 0.101 µM.

In the case of `Cc1[nH]c2c(F)ccc(C)c2c1CCNc1ncnc2cc(-c3cc(F)ccc3F)sc12` [Example 55, [6-(2,5-difluorophenyl)thieno[3,2-d]pyrimidin-4-yl]-[2-(7-fluoro-2,4-dimethyl-1H-indol-3-yl)ethyl]amine], the IC50 [2] is reported as 0.097 µM.
